EP4806894A1, “TNAP INHIBITORY COMPOUND AND USE THEREOF” (Rednvia Co., Ltd., priority 2023, dated 2025)
Structures can show the parent of a compound that is named as a salt.

Assays:
saos-2 cells = assay: Anticalcification efficacy in saos-2 cells (osteogenic medium, Alizarin Red staining); format: cell-based; settings: Homo sapiens, 168 h, test compound 1 µM, 7 days osteogenic medium, Alizarin Red absorbance 540 nm, read-out: calcification inhibition
Procedure, shortened: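 Saos-2 cells at 80–90% confluence induced for 7 days in osteogenic medium (DMEM, 100 nM dexamethasone, 10 mM β-glycerophosphate, 0.05 mM ascorbic acid), compound (0.5, 1, 5, 10 […]) added with each medium change. Alizarin Red staining eluted with cetylpyridinium chloride, A540 read; inhibition taken against OM-only absorbance.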

TNAP = molecular target: T1, TNAP (Homo sapiens, UniProt P05186); assay: TNAP inhibitory activity, colorimetric assay (alkaline phosphatase assay kit ab83369, pNPP substrate); format: biochemical; settings: TNAP enzyme, 2 hours at room temperature, absorbance 405 nm
T1 sequence (P05186 18-502 limits assumed): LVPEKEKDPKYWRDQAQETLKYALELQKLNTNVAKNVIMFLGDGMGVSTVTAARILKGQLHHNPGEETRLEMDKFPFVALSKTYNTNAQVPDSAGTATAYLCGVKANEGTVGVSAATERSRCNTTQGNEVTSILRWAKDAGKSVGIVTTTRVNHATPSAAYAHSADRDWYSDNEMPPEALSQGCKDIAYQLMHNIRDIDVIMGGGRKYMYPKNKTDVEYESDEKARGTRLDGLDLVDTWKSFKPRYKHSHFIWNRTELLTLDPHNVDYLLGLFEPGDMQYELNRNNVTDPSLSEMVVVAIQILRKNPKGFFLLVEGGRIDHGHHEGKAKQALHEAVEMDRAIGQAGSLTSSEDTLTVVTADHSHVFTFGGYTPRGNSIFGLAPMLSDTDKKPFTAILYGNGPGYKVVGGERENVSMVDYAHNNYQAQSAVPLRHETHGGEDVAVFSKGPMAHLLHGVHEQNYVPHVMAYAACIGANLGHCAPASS

COc1ccc(-c2cnn(C(C)c3nc(C)no3)c2)cc1S(=O)(=O)Nc1cnc2c(c1)C(=O)NCC2 (stereo not drawn) [Example 70, 2-methoxy-5-(1-(1-(3-methyl-1,2,4-oxadiazole-5-yl)ethyl)-1H-pyrazole-4-yl)-N-(5-oxo-5,6,7,8-tetrahydro-1,6-naphthyridine-3-yl)benzenesulfonamide] was tested, and the inhibition at 1 µM (saos-2 cells) was ≥ 50% and the IC50 (TNAP) was 100 to 1000 nM.

For COc1ccc(-c2cnn(C(C)c3nc(-c4ccc(F)cc4)no3)c2)cc1S(=O)(=O)Nc1cnc2c(c1)C(=O)NCC2 (stereo not drawn) [Example 71, 5-(1-(1-(3-(4-fluorophenyl)-1,2,4-oxadiazole-5-yl)ethyl)-1H-pyrazole-4-yl)-2-methoxy-N-(5-oxo-5,6,7,8-tetrahydro-1,6-naphthyridine-3-yl)benzenesulfonamide], the inhibition at 1 µM (saos-2 cells) was < 0% and the IC50 (TNAP) was ≥ 1000 nM.

With COc1ccc(-c2cnn(C(C)C)c2)cc1S(=O)(=O)Nc1cnc2c(c1)C(=O)NCC2 [Example 72, 5-(1-isopropyl-1H-pyrazole-4-yl)-2-methoxy-N-(5-oxo-5,6,7,8-tetrahydro-1,6-naphthyridine-3-yl)benzenesulfonamide] the inhibition at 1 µM (saos-2 cells) was ≥ 50% and the IC50 (TNAP) was 10 to 100 nM.

In the case of COc1ccc(-c2cnn(C(F)(F)F)c2)cc1S(=O)(=O)Nc1cnc2c(c1)C(=O)NCC2 [Example 73, 2-methoxy-N-(5-oxo-5,6,7,8-tetrahydro-1,6-naphthyridine-3-yl)-5-(1-(trifluoromethyl)-1H-pyrazole-4-yl)benzenesulfonamide], the inhibition at 1 µM (saos-2 cells) is reported as ≥ 50% and the IC50 (TNAP) is reported as 100 to 1000 nM.

With COc1ccc(-c2cnn(C3CC3)c2)cc1S(=O)(=O)Nc1cnc2c(c1)C(=O)NCC2 [Example 74, 5-(1-cyclopropyl-1H-pyrazole-4-yl)-2-methoxy-N-(5-oxo-5,6,7,8-tetrahydro-1,6-naphthyridine-3-yl)benzenesulfonamide] the inhibition at 1 µM (saos-2 cells) was ≥ 50% and the IC50 (TNAP) was 100 to 1000 nM.

In the case of COc1ccc(-c2cnn(S(C)(=O)=O)c2)cc1S(=O)(=O)Nc1cnc2c(c1)C(=O)NCC2 [Example 75, 2-methoxy-5-(1-(methylsulfonyl)-1H-pyrazole-4-yl)-N-(5-oxo-5,6,7,8-tetrahydro-1,6-naphthyridine-3-yl)benzenesulfonamide], the inhibition at 1 µM (saos-2 cells) is reported as ≥ 50% and the IC50 (TNAP) is reported as 100 to 1000 nM.

COc1ccc(-c2cnn(C3CCOCC3)c2)cc1S(=O)(=O)Nc1cnc2c(c1)C(=O)NCC2 [Example 76, 2-methoxy-N-(5-oxo-5,6,7,8-tetrahydro-1,6-naphthyridine-3-yl)-5-(1-(tetrahydro-2H-pyran-4-yl)-1H-pyrazole-4-yl)benzenesulfonamide] was tested, and the inhibition at 1 µM (saos-2 cells) was ≥ 50% and the IC50 (TNAP) was 100 to 1000 nM.

COc1ccc(-c2ccc(F)nc2)cc1S(=O)(=O)Nc1cnc2c(c1)C(=O)NCC2 [Example 77, 5-(6-fluoropyridine-3-yl)-2-methoxy-N-(5-oxo-5,6,7,8-tetrahydro-1,6-naphthyridine-3-yl)benzenesulfonamide] was tested, and the inhibition at 1 µM (saos-2 cells) was ≥ 50% and the IC50 (TNAP) was 100 to 1000 nM.

In the case of COc1ccc(-c2cnc(N)nc2C(F)(F)F)cc1S(=O)(=O)Nc1cnc2c(c1)C(=O)NCC2 [Example 78, 5-(2-amino-4-(trifluoromethyl)pyrimidine-5-yl)-2-methoxy-N-(5-oxo-5,6,7,8-tetrahydro-1,6-naphthyridine-3-yl)benzenesulfonamide], the inhibition at 1 µM (saos-2 cells) is reported as < 0% and the IC50 (TNAP) is reported as ≥ 1000 nM.

With COc1ccc(-c2cnn(C3COC3)c2)cc1S(=O)(=O)Nc1cnc2c(c1)C(=O)NCC2 [Example 79, 2-methoxy-5-(1-(oxetane-3-yl)-1H-pyrazole-4-yl)-N-(5-oxo-5,6,7,8-tetrahydro-1,6-naphthyridine-3-yl)benzenesulfonamide] the inhibition at 1 µM (saos-2 cells) was ≥ 50% and the IC50 (TNAP) was 100 to 1000 nM.

COc1ccc(-c2cnn(CCO)c2)cc1S(=O)(=O)Nc1cnc2c(c1)C(=O)NCC2 [Example 80, 5-(1-(2-hydroxyethyl)-1H-pyrazole-4-yl)-2-methoxy-N-(5-oxo-5,6,7,8-tetrahydro-1,6-naphthyridine-3-yl)benzenesulfonamide] was tested, and the inhibition at 1 µM (saos-2 cells) was ≥ 50% and the IC50 (TNAP) was 100 to 1000 nM.

With COc1ccc(-c2cn(C(C)C)nc2C(F)(F)F)cc1S(=O)(=O)Nc1cnc2c(c1)C(=O)NCC2 [Example 81, 5-(1-isopropyl-3-(trifluoromethyl)-1H-pyrazole-4-yl)-2-methoxy-N-(5-oxo-5,6,7,8-tetrahydro-1,6-naphthyridine-3-yl)benzenesulfonamide] the inhibition at 1 µM (saos-2 cells) was ≥ 50% and the IC50 (TNAP) was 10 to 100 nM.

For CCn1cc(-c2ccc(OC)c(S(=O)(=O)Nc3cnc4c(c3)C(=O)NCC4)c2)c(C(F)(F)F)n1 [Example 82, 5-(1-ethyl-3-(trifluoromethyl)-1H-pyrazole-4-yl)-2-methoxy-N-(5-oxo-5,6,7,8-tetrahydro-1,6-naphthyridine-3-yl)benzenesulfonamide], the inhibition at 1 µM (saos-2 cells) was ≥ 50% and the IC50 (TNAP) was ≤ 10 nM.

In the case of COc1ccc(-c2cnoc2)cc1S(=O)(=O)Nc1cnc2c(c1)C(=O)NCC2 [Example 83, 5-(isoxazole-4-yl)-2-methoxy-N-(5-oxo-5,6,7,8-tetrahydro-1,6-naphthyridine-3-yl)benzenesulfonamide], the inhibition at 1 µM (saos-2 cells) is reported as ≥ 50% and the IC50 (TNAP) is reported as 10 to 100 nM.

In the case of COc1ccc(-c2c(C)noc2C)cc1S(=O)(=O)Nc1cnc2c(c1)C(=O)NCC2 [Example 84, 5-(3,5-dimethylisoxazole-4-yl)-2-methoxy-N-(5-oxo-5,6,7,8-tetrahydro-1,6-naphthyridine-3-yl)benzenesulfonamide], the inhibition at 1 µM (saos-2 cells) is reported as ≥ 50% and the IC50 (TNAP) is reported as 10 to 100 nM.

In the case of COc1ccc(-c2cnn(C3CCN(C(=O)OC(C)(C)C)CC3)c2)cc1S(=O)(=O)Nc1cnc2c(c1)C(=O)NCC2 [Example 85, tert-butyl 4-(4-(4-methoxy-3-(N-(5-oxo-5,6,7,8-tetrahydro-1,6-naphthyridine-3-yl)sulfamoyl)phenyl)-1H-pyrazole-1-yl)piperidine-1-carboxylate], the inhibition at 1 µM (saos-2 cells) is reported as < 0% and the IC50 (TNAP) is reported as 100 to 1000 nM.

For COc1ccc(-c2cnn(C3CCNCC3)c2)cc1S(=O)(=O)Nc1cnc2c(c1)C(=O)NCC2 [Example 86, 2-methoxy-N-(5-oxo-5,6,7,8-tetrahydro-1,6-naphthyridine-3-yl)-5-(1-(piperidine-4-yl)-1H-pyrazole-4-yl)benzenesulfonamide hydrochloride], the inhibition at 1 µM (saos-2 cells) was < 0% and the IC50 (TNAP) was 100 to 1000 nM.

COc1ccc(Br)cc1S(=O)(=O)Nc1cnc2c(c1)C(=O)N(C)CC2 [Example 87, 5-bromo-2-methoxy-N-(6-methyl-5-oxo-5,6,7,8-tetrahydro-1,6-naphthyridine-3-yl)benzenesulfonamide] was tested, and the inhibition at 1 µM (saos-2 cells) was < 0% and the IC50 (TNAP) was 100 to 1000 nM.

COc1ccc(Br)cc1S(=O)(=O)Nc1cnc2c(c1)CN(C(=O)OC(C)(C)C)CC2 [Example 88, tert-butyl 3-((5-bromo-2-methoxyphenyl)sulfonamido)-7,8-dihydro-1,6-naphthyridine-6(5H)-carboxylate] was tested, and the inhibition at 1 µM (saos-2 cells) was ≥ 50% and the IC50 (TNAP) was 100 to 1000 nM.

In the case of COc1ccc(OC)c(S(=O)(=O)Nc2cnc3c(c2)CN(C(=O)OC(C)(C)C)CC3)c1 [Example 89, tert-butyl 3-((2,5-dimethoxyphenyl)sulfonamido)-7,8-dihydro-1,6-naphthyridine-6(5H)-carboxylate], the inhibition at 1 µM (saos-2 cells) is reported as ≥ 50% and the IC50 (TNAP) is reported as 10 to 100 nM.

COc1ccc(F)cc1S(=O)(=O)Nc1cnc2c(c1)CNCC2 [Example 90, 5-fluoro-2-methoxy-N-(5,6,7,8-tetrahydro-1,6-naphthyridine-3-yl)benzenesulfonamide hydrochloride] showed an inhibition at 1 µM (saos-2 cells) of 0 to 50% and an IC50 (TNAP) of 100 to 1000 nM.

For O=S(=O)(Nc1cnc2c(c1)CNCC2)c1cc(F)ccc1Br [Example 91, 5-fluoro-2-bromo-N-(5,6,7,8-tetrahydro-1,6-naphthyridine-3-yl)benzenesulfonamide hydrochloride], the inhibition at 1 µM (saos-2 cells) was < 0% and the IC50 (TNAP) was ≥ 1000 nM.

COc1ccc(Cl)cc1S(=O)(=O)Nc1cnc2c(c1)CNCC2 [Example 92, 5-chloro-2-methoxy-N-(5,6,7,8-tetrahydro-1,6-naphthyridine-3-yl)benzenesulfonamide hydrochloride] was tested, and the inhibition at 1 µM (saos-2 cells) was ≥ 50% and the IC50 (TNAP) was 10 to 100 nM.

For COc1ccc(Br)cc1S(=O)(=O)Nc1cnc2c(c1)CNCC2 [Example 93, 5-bromo-2-methoxy-N-(5,6,7,8-tetrahydro-1,6-naphthyridine-3-yl)benzenesulfonamide hydrochloride], the inhibition at 1 µM (saos-2 cells) was ≥ 50% and the IC50 (TNAP) was 10 to 100 nM.

In the case of COc1ccc(OC)c(S(=O)(=O)Nc2cnc3c(c2)CNCC3)c1 [Example 94, 2,5-dimethoxy-N-(5,6,7,8-tetrahydro-1,6-naphthyridine-3-yl)benzenesulfonamide hydrochloride], the inhibition at 1 µM (saos-2 cells) is reported as ≥ 50% and the IC50 (TNAP) is reported as 10 to 100 nM.

With CCOC(=O)N1CCc2ncc(NS(=O)(=O)c3cc(F)ccc3OC)cc2C1 [Example 95, ethyl3-((5-fluoro-2-methoxyphenyl)sulfonamido)-7,8-dihydro-1,6-naphthyridine-6(5H)-carboxylate] the inhibition at 1 µM (saos-2 cells) was ≥ 50% and the IC50 (TNAP) was 100 to 1000 nM.

In the case of CCOC(=O)N1CCc2ncc(NS(=O)(=O)c3cc(Cl)ccc3OC)cc2C1 [Example 96, ethyl3-((5-chloro-2-methoxyphenyl)sulfonamido)-7,8-dihydro-1,6-naphthyridine-6(5H)-carboxylate], the inhibition at 1 µM (saos-2 cells) is reported as ≥ 50% and the IC50 (TNAP) is reported as 10 to 100 nM.
